Laboratory results taken from the NIST ThermoML archive (doi:10.1021/je9010882).
“And” between values parts separate entries of the source, which are not always exact repeats. Equal entries are not always repeated. Numbers after ± are expanded uncertainties.

How the values were obtained:
[1] = 101 kPa, Liquid; for speed of sound: Pulse-echo method
[2] = xn = mol fraction of the nth substance listed; conditions: 101 kPa, Liquid; for speed of sound: Pulse-echo method

OCCO [1,2-ethanediol]
[1]
Conditions	mass density [kg/m3]	speed of sound
293.15 K	1113.37 ± 0.37	–
298.15 K	–	1654.4 ± 2.2 m/s and 1655.2 ± 2.2 m/s

OCCO [1,2-ethanediol] + CCCCC(CC)CO
Conditions	speed of sound [m/s]
[2], 298.15 K, x1 = 1	1655.2 ± 2.2

OCCO [1,2-ethanediol] + CCCCCCCCCO
Conditions	mass density [kg/m3]
[2], 293.15 K, x1 = 1	1113.37 ± 0.37

OCCO [1,2-ethanediol] + CCCCCCCO
Conditions	speed of sound [m/s]
[2], 298.15 K, x1 = 1	1655.2 ± 2.2

OCCO [1,2-ethanediol] + CCO
[2], 298.15 K
Conditions	mass density [kg/m3]	speed of sound [m/s]
x1 = 0.1002	819.39 ± 0.43	1187.5 ± 2.1
x1 = 0.198	852.357 ± 0.38	1231.7 ± 2.2
x1 = 0.3014	886.918 ± 0.33	1279.7 ± 2.2
x1 = 0.3462	901.797 ± 0.31	–
x1 = 0.3998	–	1328 ± 2.2
x1 = 0.4944	950.526 ± 0.26	1374.9 ± 2.2
x1 = 0.6428	998.611 ± 0.21	1454.5 ± 2.2
x1 = 0.7499	1032.4 ± 0.25	1513.4 ± 2.2
x1 = 0.8498	1063.88 ± 0.3	1569.5 ± 2.2
x1 = 1	–	1654.4 ± 2.2

CCCCC(CC)CO (stereo not given) [2-ethyl-1-hexanol]
[1], 298.15 K
Conditions	mass density [kg/m3]	speed of sound [m/s]
–	828.667 ± 0.42	1318.4 ± 2.2

CCCCC(CC)CO (stereo not given) [2-ethyl-1-hexanol] + OCCO
[2], 298.15 K
Conditions	mass density [kg/m3]	speed of sound [m/s]
x2 = 0	828.667 ± 0.42	1318.4 ± 2.2
x2 = 0.1858	848.929 ± 0.4	1334.2 ± 2.2
x2 = 0.2952	863.973 ± 0.38	1345.5 ± 2.2
x2 = 0.4043	881.937 ± 0.36	1358.8 ± 2.2
x2 = 0.4512	890.807 ± 0.34	–
x2 = 0.4914	899.091 ± 0.34	1372.4 ± 2.2
x2 = 0.599	924.736 ± 0.3	1394.9 ± 2.2
x2 = 0.6996	954.672 ± 0.27	1423.5 ± 2.2
x2 = 0.7985	991.938 ± 0.24	1468.2 ± 2.2
x2 = 0.8507	1015.69 ± 0.26	–
x2 = 0.9	1041.98 ± 0.3	1539.4 ± 2.2

CCO [ethanol]
[1], 298.15 K
Conditions	mass density [kg/m3]	speed of sound [m/s]
–	785.144 ± 0.47	1142 ± 2.1

CCO [ethanol] + OCCO
[2], 298.15 K, x2 = 0
Conditions	mass density [kg/m3]	speed of sound [m/s]
–	785.144 ± 0.47	1142 ± 2.1

CCCCCCCO [heptan-1-ol]
[1], 298.15 K
Conditions	mass density [kg/m3]	speed of sound [m/s]
–	818.793 ± 0.55	1327 ± 2.4

CCCCCCCO [heptan-1-ol] + OCCO
[2], 298.15 K
Conditions	mass density [kg/m3]	speed of sound [m/s]
x2 = 0	818.793 ± 0.55	1327 ± 2.4
x2 = 0.0668	826.183 ± 0.53	1330.3 ± 2.4
x2 = 0.1162	832.262 ± 0.52	–
x2 = 0.2007	843.633 ± 0.49	1339.2 ± 2.3
x2 = 0.2946	858.174 ± 0.46	1346.9 ± 2.3
x2 = 0.4022	877.754 ± 0.43	1359.6 ± 2.3
x2 = 0.4834	895.05 ± 0.39	1371.6 ± 2.3
x2 = 0.5508	911.359 ± 0.38	1384.3 ± 2.3
x2 = 0.6087	927.049 ± 0.35	1398.5 ± 2.3
x2 = 0.6766	948.151 ± 0.31	1418.2 ± 2.3
x2 = 0.7988	994.195 ± 0.26	1470.8 ± 2.2
x2 = 0.894	1041.3 ± 0.3	1538 ± 2.2

CCCCCCCCCO [nonan-1-ol]
[1], Vibrating tube method
Conditions	mass density [kg/m3]
293.15 K	827.65 ± 0.24
298.15 K	824.238 ± 0.25

CCCCCCCCCO [nonan-1-ol] + OCCO
mass density [kg/m3], [2]
Conditions	x2 = 0	x2 = 0.1047	x2 = 0.204	x2 = 0.2878	x2 = 0.3927	x2 = 0.5203	x2 = 0.5982	x2 = 0.703	x2 = 0.7805	x2 = 0.9004
293.15 K	827.65 ± 0.53	837.118 ± 0.51	847.778 ± 0.48	858.547 ± 0.46	874.431 ± 0.43	898.673 ± 0.38	917.33 ± 0.35	948.15 ± 0.31	977.295 ± 0.28	1038.17 ± 0.36
298.15 K	824.238 ± 0.54	833.672 ± 0.51	844.308 ± 0.48	855.056 ± 0.46	870.919 ± 0.42	895.129 ± 0.38	913.771 ± 0.34	944.568 ± 0.29	973.695 ± 0.24	1034.58 ± 0.27
